Laboratory results: US20160051514A1, “METHODS FOR TREATMENT OF CARDIOMYOPATHY” (THE BRIGHAM AND WOMEN'S HOSPITAL, INC., priority 2013, published 2016)
“Also recorded” adds a separate entry of the source.

Assays:
[1] = test system: neonatal rat ventricular myocytes expressing 2057del2 plakoglobin; assay: Immunofluorescence of intercalated disk proteins in neonatal rat ventricular myocytes; assay type: cell-based
Protocol: Neonatal rat ventricular myocyte isolation and culture, stretch protocols: Primary cardiac myocyte cultures were prepared from ventricles of 1-day-old Wistar rat pups (Charles River) as previously described.^9 Cells were plated on collagen-coated plastic chamber slides at a density of […] cells/cm^2 and grown for 4 days prior to experimentation. In selected experiments, monolayers grown on collagen--coated silicone membranes were subjected to linear pulsatile stretch using a custom-designed apparatus as described in previous studies.'° Cells were stretched to 110% of resting length at a. frequency of 3 Hz for 1-4 hr in serum-free medium. In other experiments cultures were incubated with reagents including pifitlirin A (5 μM, 1 hr) and SB216763 (5 μM, 24 hr) prior to experimentation. All protocols were approved by the Institutional Animal Care and Use Committee (IACUC).
Viral transfection: A recombinant adenoviral construct expressing 2057del2-plakoglobin was created with the ViraPower Adenoviral Expression system (Invitrogen) using the pAd/CMV/V5-DEST vector through LR clonase-mediated recombination. The V5-tag was used to identify the mutant protein and distinguish it from wildtype plakoglobin. Two days post-plating, monolayers were exposed to viral solution (1:130 dilution in serum-free media, 37° C.) for 1 hr after which viral solution was replaced with complete medium in the presence or absence of reagents.
Immunofluoresence staining and microscopy in cultured cells: Cultures were rinsed in serum-free medium and fixed in 4% paraformaldehyde at room temperature for 5 min or in acetone at −20° C. for 10 min. Fixed cells were immunostained with mouse monoclonal anti-plakoglobin (Sigma), anti-N-cadhcrin (Sigma), anti-Cx43 (Millipore), anti-desmopla.kin (Fitzgerald), anti-SAP97 (Santa Cruz Biotechnology) antibodies and anti-Nav1.5 (kindly provided by Dr. Hugues Abriel, University of Bern, Switzerland) antibodies. Specific immunoreactive signal was detected by laser scanning confocal microscopy as previously described.”
Neonatal rat ventricular myocyte isolation, culture, stretch protocols: Primary cardiac myocyte cultures were prepared from ventricles of 1-day-old Wistar rat pups (Charles River) as previously described (36). Cells were plated on collagen-coated plastic chamber slides at a density of 2.4×10^5 cells/cm2 and grown for 4 days prior to experimentation. In selected experiments, monolayers grown on collagen-coated silicone membranes were subjected to linear pulsatile stretch using a custom-designed apparatus as described in previous studies (35). Cells were stretched to 110% of resting length at a frequency of 3 Hz for 1-4 hr in serum-free medium. In other experiments cultures were incubated with reagents including pifithrin A (5 μM, 1 hr) and SB216763 (0.1-10 μM for 12 or 24 hr) prior to experimentation. Vehicle controls (DMSO) were included in all experiments.
Viral transfection: A recombinant adenoviral construct expressing 2057del2 plakoglobin was created with the ViraPower Adenoviral Expression™ system (Invitrogen) using the pAd/CMV/V5-DEST vector through LR clonase-mediated recombination. The V5-tag was used to identify the mutant protein and distinguish it from wildtype plakoglobin. Two days post-plating, monolayers were exposed to viral solution (1:130 dilution in serum-free media, 37° C.) for 1 hr after which viral solution was replaced with complete medium in the presence or absence of reagents. Immunofluorescence staining and microscopy in cultured cells: Cultures were rinsed in serum-free medium and fixed in 4% paraformaldehyde at 25° C. for 5 min or in acetone at −20° C. for 10 min. Fixed cells were immunostained with mouse monoclonal anti-plakoglobin (Sigma), anti-N-cadherin (Sigma), anti-Cx43 (Millipore), anti-desmoplakin (Fitzgerald), anti-SAP97 (Santa Cruz Biotechnology) antibodies and anti-Nav1.5 antibodies (rabbit polyclonal).

[2] = test system: mutant desmoglein-2 (Dsg2) knock-in mice; assay: Mouse model of AC: mutant desmoglein-2 (Dsg2) knock-in; assay type: in vivo; conditions: daily injections for 13 weeks
Protocol: 2 different mouse models of AC were studied: a transgenic line with cardiac myocyte-specific expression of 2057del2 plakoglobin (Plk) and a mutant desmoglein-2 (Dsg2) knock-in model. ECG telemetry and echocardiographic analyses were performed in mutant and wildtype mice treated with daily injections of SB216763 or vehicle for 6 (2057del2 Plk) or 13 (Dsg2) weeks. Hearts excised at selected time points were analyzed for histology, apoptosis and distribution of key intercalated disk proteins.

[3] = cells expressing 2057del2 plakoglobin, 5 μM, 24 hr
[4] = cells expressing 2057del2 plakoglobin, 5 μM, 24 hr, listed as SAB216763
[5] = cells expressing 2057del2 plakoglobin, exposure for 24 hr

Cn1cc(C2=C(c3ccc(Cl)cc3Cl)C(=O)NC2=O)c2ccccc21 [SB216763]
Disease features (plakoglobin redistribution, gap junction remodeling, cytokine expression, myocyte apoptosis), summary statements [1]: normalized; also recorded: reversed or prevented
Gap junction remodeling / junctional Cx43 signal [1, 3]: increased junctional signal for Cx43; also recorded: prevented the adverse remodeling of gap junctions
Subcellular distribution of plakoglobin immunoreactive signal (junctional vs intracellular/nuclear) [1, 3]: prevented the marked change in subcellular distribution of plakoglobin and accumulation of nuclear signal
Gap junction remodeling / junctional Cx43 signal [1, 4]: blocked
Subcellular distribution of plakoglobin immunoreactive signal (junctional vs intracellular/nuclear) [1, 4]: prevented redistribution of plakoglobin from junctional to intracellular pools
Nav1.5 immunoreactive signal [1, 5]: signal levels were restored; also recorded: reversed
SAP97 immunoreactive signal at the cell surface / cell-cell junctions [1, 5]: a more normal distribution was restored; also recorded: fully reversed
Cx43 signal at cell-cell junctions in control (non-transfected) cultures ([1]; control cultures, 5 μM, 24 hr): increased the amount of Cx43 signal at cell-cell junctions; also recorded: also increased junctional signal for Cx43
Concentration of maximal effect in restoring normal cellular distribution of plakoglobin and Cx43 signals ([1]; dose-response 0.1-10 μM for 12 or 24 hours, maximal at 24 hr): 5 µM
QRS duration [2]: 17.1 ± 2.7 ms
Redistribution of junctional signals for Plk, Cx43 and SAP97, and myocardial apoptosis [2]: normalized
Ejection fraction (EF) ([2]; echocardiography): 73.9±6.9%
Fractional shortening (FS) ([2]; echocardiography): 50.2±6.6%
